Patent publication US8778973B2, “Alkene oxindole derivatives” (Hoffmann-La Roche Inc., priority 2009, dated 2014)

Tested on: Recombinant human AMPK proteins (α1β1γ1, α2β1γ1, α1(1-335), α1(1-394) or α2(1-394))
Assay: Scintillation Proximity Assay (SPA) of AMPK activation
Assay type: biochemical
Conditions: activator concentration for 50% of maximal enzyme activity; 50 nM recombinant AMPK, 2 μM ATP, 30° C., 2 hr
Experimental: Recombinant human AMPK α1β1γ1, α2β1γ1 or AMPK α subunit truncations α1(1-335), α1(1-394) and α2(1-394) were constructed, expressed and purified as described previously (Pang, T., Zhang, Z. S., Gu, M., Qiu, B. Y., Yu, L. F., Cao, P. R., Shao, W., Su, M. B., Li, J. Y., Nan, F. J., and Li, J. (2008)). Rat liver AMPK heterotrimer enzyme was obtained from Upstate (Billerica, Mass., U.S.A.).
Scintillation Proximity Assay
Before the Scintillation Proximity Assay (SPA) assay, 200 nM recombinant AMPK proteins (α1β1γ1, α2β1γ1, α1(1-335), α1(1-394) or α2(1-394)) were fully phosphorylated as described previously (Pang et al., 2008). SPA reactions were performed in 96-well plates at a final volume of 501 containing 20 mM Tris-HCl pH 7.5, 5 mM MgCl2, 1 mM DTT, 2 μM biotin-SAMS, 2 μM ATP, 0.2 μCi/well [γ-^33P]ATP, and various amount of activator. Reactions were initiated by the addition of 50 nM recombinant AMPK proteins to the reaction solutions and incubated at 30° C. for 2 hr. After that, reactions were terminated by the addition of 401 stop solution containing 80 μg streptavidin-coated SPA beads per well, 50 mM EDTA, 0.1% Triton X-100 in PBS, pH 7.5 and incubated for 1 hr. Finally, a 160 ul suspension solution containing 2.4 M CsCl, 50 mM EDTA, and 0.1% Triton X-100 in PBS (pH 7.5) was added to the reaction solution to suspend SPA beads completely. SPA signals were determined with a Wallac MicroBeta plate counter (PerkinElmer) 30 min later for calculation of the amount of product formed. The amount of products formed in 2 hr was plotted against activator concentrations to determine the effective concentration of the activator (EC50) required for 50% of maximal enzyme activity.
Compounds as described above have EC50 values between 0.5 uM and 50 uM, preferred compounds have EC50 values between 0.5 uM and 10 uM, particularly preferred compounds have EC50 values between 0.5 uM and 1 uM.

| Compound | EC50 [nM] |
| --- | --- |
| COC(=O)c1cccc(CN2C(=O)/C(=C(\c3ccccc3)c3cccc(C(F)(F)F)c3)c3ccccc32)c1 [Example 30, 3-{2-Oxo-3-[1-phenyl-1-(3-trifluoromethyl-phenyl)-meth-(E)-ylidene]-2,3-dihydro-indol-1-ylmethyl}-benzoic acid methyl ester] | 1650 |
| O=C(O)c1cccc(CN2C(=O)/C(=C(\c3ccccc3)c3ccc(Cl)cc3)c3c(F)cccc32)c1 [Example 60, 3-{3-[1-(4-Chloro-phenyl)-1-phenyl-meth-(E)-ylidene]-4-fluoro-2-oxo-2,3-dihydro-indol-1-ylmethyl}-benzoic acid] | 1240 |
| O=C1/C(=C(\c2ccccc2)c2ccc(Cl)cc2)c2ccccc2N1Cc1ccc(O)cc1 [Example 43, 3-[1-(4-Chloro-phenyl)-1-phenyl-meth-(E)-ylidene]-1-(4-hydroxy-benzyl)-1,3-dihydro-indol-2-one] | 3230 |
| COC(=O)c1cccc(CN2C(=O)/C(=C(\c3ccccc3)c3ccc(S(N)(=O)=O)cc3)c3ccccc32)c1 [Example 31, 3-{2-Oxo-3-[1-phenyl-1-(4-sulfamoyl-phenyl)-meth-(E)-ylidene]-2,3-dihydro-indol-1-ylmethyl}-benzoic acid methyl ester] | 770 |
| COC(=O)c1cccc(CN2C(=O)/C(=C(\c3ccccc3)c3ccc(F)c(F)c3)c3ccccc32)c1 [Example 15, 3-{3-[1-(3,4-Difluoro-phenyl)-1-phenyl-meth-(E)-ylidene]-2-oxo-2,3-dihydro-indol-1-ylmethyl}-benzoic acid methyl ester] | 2470 |
| CC(C)/C(=C1\C(=O)N(Cc2cccc(C(=O)O)c2)c2ccccc21)c1ccc(C(F)(F)F)cc1 [Example 105, 3-{3-[2-Methyl-1-(4-trifluoromethyl-phenyl)-prop-(E)-ylidene]-2-oxo-2,3-dihydro-indol-1-ylmethyl}-benzoic acid] | 2950 |
| COC(=O)c1cccc(CN2C(=O)/C(=C(\c3ccccc3)c3cccc(Cl)c3Cl)c3ccccc32)c1 [Example 20, 3-{3-[1-(2,3-Dichloro-phenyl)-1-phenyl-meth-(E)-ylidene]-2-oxo-2,3-dihydro-indol-1-ylmethyl}-benzoic acid methyl ester] | 1760 |
| COC(=O)c1cccc(CN2C(=O)/C(=C(\c3ccccc3)c3ccc(Cl)cc3)c3cccc(F)c32)c1 [Example 6, 3-{3-[1-(4-Chloro-phenyl)-1-phenyl-meth-(E)-ylidene]-7-fluoro-2-oxo-2,3-dihydro-indol-1-ylmethyl}-benzoic acid methyl ester] | 1510 |
| COC(=O)c1cccc(CN2C(=O)/C(=C(/c3ccc(C(C)=O)cc3)C(C)C)c3ccccc32)c1 [Example 86, 3-{3-[1-(4-Acetyl-phenyl)-2-methyl-prop-(E)-ylidene]-2-oxo-2,3-dihydro-indol-1-ylmethyl}-benzoic acid methyl ester] | 7880 |
| CC(C)NC(=O)c1cccc(CN2C(=O)/C(=C(\c3ccccc3)c3ccc(Cl)cc3)c3ccccc32)c1 [Example 37, 3-{3-[1-(4-Chloro-phenyl)-1-phenyl-meth-(E)-ylidene]-2-oxo-2,3-dihydro-indol-1-ylmethyl}-N-isopropyl-benzamide] | 4490 |
| O=C(O)c1ccc(CN2C(=O)/C(=C(\c3ccccc3)c3ccc(Cl)cc3)c3ccccc32)cc1 [Example 57, 4-{3-[1-(4-Chloro-phenyl)-1-phenyl-meth-(E)-ylidene]-2-oxo-2,3-dihydro-indol-1-ylmethyl}-benzoic acid] | 2170 |
| COC(=O)c1cccc(CN2C(=O)/C(=C(\c3ccccc3)c3cc(Cl)cc(Cl)c3)c3ccccc32)c1 [Example 19, 3-{3-[1-(3,5-Dichloro-phenyl)-1-phenyl-meth-(E)-ylidene]-2-oxo-2,3-dihydro-indol-1-ylmethyl}-benzoic acid methyl ester] | 1000 |
| O=C(O)c1cccc(CN2C(=O)/C(=C(\c3ccc(Cl)cc3)c3ccc(C(F)(F)F)cc3)c3ccccc32)c1 [Example 69, 3-{3-[1-(4-Chloro-phenyl)-1-(4-trifluoromethyl-phenyl)-meth-(Z)-ylidene]-2-oxo-2,3-dihydro-indol-1-ylmethyl}-benzoic acid] | 2200 |
